# Measured values reported in patent publication US9233961B2, “Compounds and compositions for the treatment of parasitic diseases” (Novartis AG, priority 2013, dated 2016).
# Read-outs that look alike come from different tables or passages of the source.
# Assays:
# [1] = tested on: L. donovani HU3 strain in mouse peritoneal macrophages; test: Assay for proliferation of Leishmania parasites in mouse peritoneal macrophages; type: cell-based, Leishmania donovani; conditions: Leishmania donovani, Peritoneal macrophage
# Summary of the method: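 EC50 derives from counting SYBR Green-stained parasite nuclei by high-content imaging after 5 days' compound exposure. Host cells were uninfected BALB/c peritoneal macrophages, infected for 24 h before dosing with spleen-derived L. donovani HU3 parasites from mice infected 9–11 weeks.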
# [2] = tested on: Leishmania donovani axenic amastigote parasites; test: Leishmania donovani axenic amastigote proliferation assay; type: cell-based; conditions: read-out: L. donovani amastigotes EC50
# Summary of the method: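 EC50 values come from CellTiter-Glo luminescence after 2-day compound exposure of axenic amastigotes (9600 per well) at 37 °C, 5% CO2. Medium: RPMI 1640, 20% heat-inactivated FBS, folic acid, adenosine, D-glucose, 25 mM MES, adjusted to pH 5.5.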
# [3] = tested on: Trypanosoma brucei Lister 427 strain bloodstream form; test: Assay for proliferation of kinetoplastid parasite Trypanosoma brucei; type: cell-based; conditions: read-out: T. brucei EC50
# Text: Assay for Proliferation of Kinetoplastid Parasite Trypanosoma brucei.
# The proliferation is quantified by the addition of Cell Titer Glo (Promega®) a luminescent cell viability assay that measures the number of viable cells in culture based on the quantification of cellular ATP amount, which is an indicator of metabolically active cells.
# The following assay illustrates the invention without in any way limiting the scope of the invention. This parasite proliferation assay measures the increase in parasite growth using an assay that measures ATP activity, Cell Titer Glo®.
# Trypanosoma brucei Lister 427 strain is grown in HMI-9 Trypanosome media for T. brucei bloodstream form. 30 μl of HMI-9 media is dispensed into 384 well assay plates. 200 nl of compounds of the invention (in DMSO), including anti-trypanosome controls (Pentamidine and suramin), are then transferred into the assay plates, as well as DMSO alone to serve as a negative control for inhibition. Then 25 μl of a suspension of T. brucei culture in HMI-9 media is dispensed into the assay plates. The final concentration of parasites in culture corresponds to 1.7% of 0.5 uM ATP activity with Cell Titer Glo® in HMI-9 media. The plates are placed in a 37° C. incubator for 48 hours in an atmospheric environment containing 5% CO2. 40 μl of Cell Titer Glo® is dispensed into the plates. The plates are then read for luminescence. The percentage inhibition of 50%, EC50, is calculated for each compound.
# [4] = read-out: L. donavani Macrophage EC50
# [5] = Lister 427 bloodstream form, 48 hours
SMILES,"EC50 [1, 4] [µM]",EC50 ([2]; axenic amastigotes in vitro) [µM],"EC50 [3, 5] [µM]",EC50 ([1]; read-out: L. donavani Macrophage EC50 (μM)) [µM],EC50 [2] [µM],EC50 ([3]; 48 h) [µM]
Cc1cnc2nc(-c3cc(NC(=O)C(C)c4ccc(F)cc4)ccc3Cl)[nH]c2c1 (stereo not drawn) [Compound 119],24.2,> 25,> 16.2,–,–,–
Cc1cnc2nc(-c3cc(Nc4ccc(N5CCOCC5)cn4)ccc3Cl)[nH]c2c1 [Compound 260],29.3,> 25,17.7,–,–,–
Cc1cnc2nc(-c3cc(NC(=O)c4nc(C)oc4C)ccc3Cl)[nH]c2c1 [Compound 179],> 50,> 25,5,–,–,–
Cc1cnc2nc(-c3cc(NS(=O)(=O)c4cccs4)ccc3Cl)[nH]c2c1 [Compound 251],> 50,> 25,> 18.2,–,–,–
Cc1cnc2nc(-c3cc(NC(=O)c4sc(C)nc4C)ccc3Cl)[nH]c2c1 [Compound 191],> 39.1,> 25,> 16.2,–,–,–
Cc1csc(C(=O)Nc2ccc(Cl)c(-c3nc4ncc(C)cc4[nH]3)c2)c1 [Compound 209],10.4,7.9,1.41,–,–,–
Cc1cnc2nc(-c3cc(NC(=O)c4cc(C5CC5)n[nH]4)ccc3Cl)[nH]c2c1 [Compound 158],> 50,> 25,13,–,–,–
COc1ccc(CC(=O)Nc2ccc(Cl)c(-c3nc4ncc(C)cc4[nH]3)c2)cc1 [Compound 156],27.2,> 25,> 14.2,–,–,–
O=C(Nc1ccc(Cl)c(-c2nc3ncc(-c4ccc(OCCN5CCOCC5)nc4)cc3[nH]2)c1)c1ccco1 [Compound 11],0.46,0.55,0.0064,–,–,–
Cc1cnc2nc(-c3cc(NC(=O)Cc4ccc(F)cc4F)ccc3Cl)[nH]c2c1 [Compound 114],> 41.5,> 25,> 11.9,–,–,–
Cc1cnc2nc(-c3cc(NC(=O)C4CCCC4)ccc3Cl)[nH]c2c1 [Compound 199],21.5,23.7,4.4,–,–,–
Cc1cnc2nc(-c3cc(NC(=O)c4oc(C)nc4C)ccc3Cl)[nH]c2c1 [Compound 139],25.8,1.06,0.33,–,–,–
CS(=O)(=O)c1ccc(-c2cnc3nc(-c4cc(NC(=O)c5ccco5)ccc4Cl)[nH]c3c2)cc1 [Compound 46],1.33,0.5,0.037,–,–,–
CO[C@@H](C(=O)Nc1ccc(Cl)c(-c2nc3ncc(C)cc3[nH]2)c1)c1ccccc1 [Compound 181],> 30.5,> 25,> 14.5,–,–,–
Cc1cnc2nc(-c3cc(NC(=O)c4cc(Cl)cc(Cl)c4)ccc3Cl)[nH]c2c1 [Compound 196],11,> 25,11.2,–,–,–
Cc1cnc2nc(-c3cc(NS(=O)(=O)Cc4ccc(C(F)(F)F)cc4)ccc3Cl)[nH]c2c1 [Compound 252],> 50,> 25,> 25,–,–,–
Cc1cnc2nc(-c3cc(NC(=O)c4ccc(N5CCOCC5)cc4)ccc3Cl)[nH]c2c1 [Compound 109],> 19.1,> 24.4,15.1,–,–,–
Cc1cnc2nc(-c3cc(NC(=O)C4CCc5ccccc5O4)ccc3Cl)[nH]c2c1 (stereo not drawn) [Compound 198],> 28.7,> 25,8.4,–,–,–
Cc1cnc2nc(-c3cc(Nc4nccc5c4CCN(Cc4ccccc4)C5)ccc3Cl)[nH]c2c1 [Compound 265],15.6,> 25,8.2,–,–,–
Cc1cnc2nc(-c3cc(NC(=O)c4cccnc4)ccc3Cl)[nH]c2c1 [Compound 208],> 32.7,8.7,2.48,–,–,–
Cc1cnc2nc(-c3cc(NC(=O)Cc4nnn[nH]4)ccc3Cl)[nH]c2c1 [Compound 169],> 50,> 25,> 25,–,–,–
Cc1cnc2nc(-c3cc(NC(=O)OCC(C)C)ccc3Cl)[nH]c2c1 [Compound 220],17.3,7.4,1.66,–,–,–
Cc1cnc2nc(-c3cc(NC(=O)c4noc(C)n4)ccc3Cl)[nH]c2c1 [Compound 161],> 50,> 25,9.6,–,–,–
Cc1cnc2nc(-c3cc(NC(=O)Cc4ccc(Cl)cc4)ccc3Cl)[nH]c2c1 [Compound 144],26,> 25,> 11.3,–,–,–

SMILES,"EC50 [1, 4] [µM]",EC50 ([2]; axenic amastigotes in vitro) [µM],"EC50 [3, 5] [µM]",EC50 ([1]; read-out: L. donavani Macrophage EC50 (μM)) [µM],EC50 [2] [µM],EC50 ([3]; 48 h) [µM]
COc1cc(-c2cnc3nc(-c4cc(NC(=O)c5ccco5)ccc4Cl)[nH]c3c2)ccc1NC(=O)OC(C)(C)C [Compound 34],1.79,0.6,0.105,–,–,–
Cc1cnc2nc(-c3cc(NC(=O)c4ccc(C(C)(C)C)o4)ccc3Cl)[nH]c2c1 [Compound 190],20.2,> 24,5.8,–,–,–
Cc1ccnc(C(=O)Nc2ccc(Cl)c(-c3nc4ncc(C)cc4[nH]3)c2)c1 [Compound 172],23.7,> 25,> 15.8,–,–,–
O=C(Nc1ccc(Cl)c(-c2nc3ncc(-c4ccc(OCCN5CCCCC5)cc4)cc3[nH]2)c1)c1ccco1 [Compound 21],2.8,16,0.063,–,–,–
Cc1cnc2nc(-c3cc(NC(=O)c4cnco4)ccc3Cl)[nH]c2c1 [Compound 177],> 50,2.28,1.66,–,–,–
Cc1cnc2nc(-c3cc(NC(=O)Cn4cncn4)ccc3Cl)[nH]c2c1 [Compound 122],> 50,> 25,> 25,–,–,–
COC(=O)Nc1ccc(-c2cnc3nc(-c4cc(NC(=O)c5ccco5)ccc4Cl)oc3c2)cc1 [Compound 417],–,0.212,0.056,0.49,–,–
"Cc1cnc2nc(-c3cc(NC(=O)OCCF)ccc3Cl)[nH]c2c1 [Example 214, 2-Fluoroethyl N-(4-chloro-3-{6-methyl-1H-imidazo[4,5-b]pyridin-2-yl}phenyl)carbamate]",27.5,–,–,–,8.4,2.25
Cc1cnc2nc(-c3cc(NC(=O)c4cc(C)on4)ccc3Cl)[nH]c2c1 [Compound 79],> 50,> 25,12.5,–,–,–
Cc1ccc(CC(=O)Nc2ccc(Cl)c(-c3nc4ncc(C)cc4[nH]3)c2)cc1 [Compound 167],16.1,> 25,> 11.5,–,–,–
Cc1cnc2nc(-c3cc(NC(=O)C(C)(C)N)ccc3Cl)[nH]c2c1 [Compound 194],> 50,> 25,> 11.7,–,–,–
Cc1cnc2nc(-c3cc(NC(=O)c4ccc(S(C)(=O)=O)cc4)ccc3Cl)[nH]c2c1 [Compound 193],> 50,> 25,15.2,–,–,–
Cc1cnc2nc(-c3cc(NC(=O)NC(C)C)ccc3Cl)[nH]c2c1 [Compound 249],> 30,> 25,14.1,–,–,–
Cc1cnc2nc(-c3cc(Nc4ccc(C#N)cn4)ccc3Cl)[nH]c2c1 [Compound 263],> 30.1,> 25,> 25,–,–,–
Cc1cnc2nc(-c3cc(NC(=O)c4nnc(C)o4)ccc3Cl)[nH]c2c1 [Compound 106],> 50,> 25,13.3,–,–,–
Cc1cnc2nc(-c3cc(NC(=O)c4csc(C)n4)ccc3Cl)[nH]c2c1 [Compound 107],21.5,5.5,0.51,–,–,–
Cc1cnc2nc(-c3cc(NS(=O)(=O)c4c(C)noc4C)ccc3Cl)[nH]c2c1 [Compound 253],> 28.4,> 24.9,> 25,–,–,–
Cc1cnc2nc(-c3cc(NC(=O)Cc4ccccc4)ccc3Cl)[nH]c2c1 [Compound 202],> 50,> 25,1.87,–,–,–
Cc1cnc2nc(-c3cc(NC(=O)c4nccs4)ccc3Cl)[nH]c2c1 [Compound 192],> 37.9,10.2,0.49,–,–,–
Cc1cnc2nc(-c3cc(Nc4cccnc4N4CCOCC4)ccc3Cl)[nH]c2c1 [Compound 264],> 32.3,> 25,11.7,–,–,–
Cc1cnc2nc(-c3cc(NC(=O)CCCN(C)C)ccc3Cl)[nH]c2c1 [Compound 159],> 50,> 25,> 12.2,–,–,–
Cc1cnc2nc(-c3cc(NC(=O)C(c4ccc(Cl)cc4)C(C)C)ccc3Cl)[nH]c2c1 (stereo not drawn) [Compound 141],9.7,13.9,6.2,–,–,–
Cc1cnc2nc(-c3cc(NC(=O)c4cscn4)ccc3Cl)[nH]c2c1 [Compound 205],> 46.3,14.3,1.26,–,–,–
Cc1cnc2nc(-c3cc(NC(=O)OCc4ccccc4)ccc3Cl)[nH]c2c1 [Compound 223],21.4,> 25,14.1,–,–,–
